From patent US6509377B1, “Use of a 2-hydroxy-4-trifluoromethylbenzoic acid derivatives as inhibitors of the activation of the nuclear transcription factor NF-κB” (J. Uriach & Cia, S.A., priority 1999, dated 2003)

Legend:
Type in all cases: cell-based
COX-2 [1] = assay: PGE2 production induced by LPS in human PBMC (ELISA); conditions: LPS 10 μg/ml, 19 hours, 0.1-5 mM
Description: Mononuclear cells (PBMC) were obtained from blood of healthy donors from the Hospital de Sant Pau, (Barcelona) who had not taken any antiinflammatory drug during a period of not less than 2 weeks before blood extraction. Starting from a volume of about 80 ml of heparinized human blood (10 U/ml), this was diluted (1:1) with PBS (pH 7.4; Dulbecco) without calcium, magnesium nor sodium bicarbonate. 15 ml of Ficoll solution (d=1.077 at 20° C.; Biochrom KG) were placed in 50-ml Falcon tubes. To this solution a volume of about 25 ml per tube of the blood previously diluted with PBS was carefully added and the tubes were then centrifuged at 1,200 g for 20 minutes. Mononudear cells concentrate on a whitish interphase between the plasma and the Ficoll solution. This interphase was collected with a Pasteur pipette and was diluted 1:1 with PBS. It was then centrifuged at 300 g, 10 min. The resulting pellet was resuspended in 50 ml PBS and was again centrifuged at 200 g for 10 min in order to remove platelet contamination. Finally, the resulting pellet was resuspended in 20 ml RPMI-1640 culture medium (GibcoBRL) supplemented with 10% fetal calf serum. […]
Finally, the supernatants from each experiment that had been stored at −70° C. were defrozen and the amount of PGE2 in solution was determined using specific ELISA kits (Amershan-Biotrak RPN22).

TNF-α = TNF-α production induced by LPS in human PBMC (enzymatic immunoassay); conditions: LPS 10 μg/ml, 19 hours
Description: Mononuclear cells (PBMC) were obtained from blood of healthy donors from the Hospital de Sant Pau (Barcelona) following the procedure described in example 3. Cells were diluted at a concentration of 2 million/ml in RPMI medium supplemented with 10% fetal calf serum and were incubated (37° C., 5% CO2) with triflusal, HTB or vehicle (DMSO) in the presence of 10 μg/ml E.coli lipopolysaccharide (LPS, 026:B6 serotype; Sigma), for 19 hours. The cell suspension was then centrifuged at 2,000 g for 10 minutes at 4° C., and the resulting supernatant was stored at −70° C. for later analysis. The cytokine content was determined by enzymatic immunoassay, after 1/100 dilution of the samples.

COX-2 [2] = assay: COX-2 expression induced by LPS in human PBMC (immunoblot); conditions: LPS 10 μg/ml, 19 hours, 0.1-5 mM
Description: Mononuclear cells (PBMC) were obtained from blood of healthy donors from the Hospital de Sant Pau, (Barcelona) who had not taken any antiinflammatory drug during a period of not less than 2 weeks before blood extraction. Starting from a volume of about 80 ml of heparinized human blood (10 U/ml), this was diluted (1:1) with PBS (pH 7.4; Dulbecco) without calcium, magnesium nor sodium bicarbonate. 15 ml of Ficoll solution (d=1.077 at 20° C.; Biochrom KG) were placed in 50-ml Falcon tubes. To this solution a volume of about 25 ml per tube of the blood previously diluted with PBS was carefully added and the tubes were then centrifuged at 1,200 g for 20 minutes. Mononudear cells concentrate on a whitish interphase between the plasma and the Ficoll solution. This interphase was collected with a Pasteur pipette and was diluted 1:1 with PBS. It was then centrifuged at 300 g, 10 min. The resulting pellet was resuspended in 50 ml PBS and was again centrifuged at 200 g for 10 min in order to remove platelet contamination. Finally, the resulting pellet was resuspended in 20 ml RPMI-1640 culture medium (GibcoBRL) supplemented with 10% fetal calf serum.
Cells were diluted at a concentration of 2.5 million/ml with RPMI medium containing 10% fetal calf serum and were incubated (37° C., 5% CO2) 19 hours in 6-well plates (2 ml/well, 5 million PBMC). […]

Structure (SMILES)	inhibition of PGE2 production (COX-2 [1])	inhibition of LPS-induced TNF-α production (TNF-α; 0.3 mM)	inhibition of LPS-induced TNF-α production (TNF-α; 1 mM)	inhibition of COX-2 expression (COX-2 [2])
O=C(O)c1ccc(C(F)(F)F)cc1O [HTB, 2-hydroxy-4-trifluoromethylbenzoic acid]	concentration-dependently inhibit	almost completely inhibit	almost completely inhibit	concentration-dependently inhibit
CC(=O)Oc1cc(C(F)(F)F)ccc1C(=O)O [triflusal, 2-Acetyloxy-4-trifluoromethylbenzoic acid, reference compound]	concentration-dependently inhibit	almost completely inhibit	almost completely inhibit	concentration-dependently inhibit
